# Experimental data reported in patent US12329876B2, “Porous bioresorbable radiopaque embolic microspheres for drug delivery” (REVA Medical, LLC, priority 2018, dated 2025).
# Assay: degradation kinetics (mass loss) of copolymers and of microbeads from copolymer blends (FIGS. 12A, 12B)
# Type: physicochemical
# Excerpt: The illustrative examples of achievable degradation profile are presented on FIGS. 12A and 12B.
# Adjusting ratio of iodinated structural component (PrD-diI2DAT) and rubbery component (PEG400 or PEG1000), ratio of Carbonate to Oxalate bonds in single copolymer or utilizing blends of copolymers, a wide spectrum of degradation profiles could be achieved, including multi-step degradation.
substance,measurement,value
Copolymer 50% PrD-di I2DAT-co-50% PEG1K with 100% carbonate bonds [Formula #4],"degradation kinetic (mass loss), result in words",slow degradation
